Our source for the GI50 and TGI values is PubChem BioAssay (NCI).

Common to all, as to test: NCI-60 cell line screen, 48 h
Test [1] deals with 786-0 renal.
In test [2] the test system is EKVX NSCLC.
In test [3] the test system is HCT-116 colon.
The test system of test [4] is HS 578T breast.
The subject of test [5] is NCI-H522 lung.
The subject of test [6] is OVCAR-5 ovarian.
For test [7], the system named is RPMI-8226 leukemia.
Test [8] relates to RXF 393 renal.
The subject of test [9] is SK-MEL-5 melanoma.
Test [10] has as its system U251 CNS.

Structures are written as SMILES. Values joined by “and” are separate entries in the source; they are usually repeats but may differ in a detail not shown here. Equal entries are not always repeated.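 96-well plates; 48 h exposure; 5 concentrations. Endpoints by linear interpolation between flanking doses. Not reached: highest tested concentration assigned. At the GI50, growth is halved. The concentration for full growth arrest is given as TGI.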

For the compound `COc1ccc(C2=NOC3=c4ccccc4=CSC3=C2c2ccccc2)cc1`, the GI50 is 27.5 µM in test [1]; 94 µM in test [2]; 12.8 µM in [3]; 47.4 µM in test [4]; more than 100 µM in test [5]; 80.1 µM in [6]. Besides, the GI50 in [7] is 25.3 µM; in [8], 22.2 µM; in test [9] it was 16.5 µM; in test [10], 25.2 µM. For the same compound, the TGI in test [1], in [2], in [3], in [4], in test [5] and in test [6] was more than 100 µM throughout. The TGI in test [7] is more than 100 µM; in test [8], 63.7 µM; in [9], 39.7 µM; in test [10] it was more than 100 µM.
On to `CCCCCCCC(=O)OC[n+]1cccc(-c2c(COC(=O)NC(C)C)c(COC(=O)NC(C)C)c3n2CCC3)c1`, for which the TGI in test [1], in [2], in [3], in test [4], in test [5] and in [6] was more than 100 µM throughout. Besides, the TGI in test [7] was more than 100 µM; in test [8], 97.2 µM; in test [9] it was more than 100 µM; in test [10], more than 100 µM.
Turning to `COc1ccc2cc1Oc1ccc(cc1)CC1c3c(cc(OC)c4c3Oc3cc5c(cc3O4)CCNC5C2)CCN1C` (stereo not given), the GI50 was 2.17 µM in [1]; 1.71 µM in [2]; 1.84 µM in test [3]; 1.98 µM in test [4]; 1.98 µM in test [6]; 1.61 µM in test [7]. Moreover, the values for the GI50 in test [8] and in test [10] were 0.288 µM and 1.68 µM, respectively. In addition, the TGI in [1] is 3.72 µM; in [2], 3.73 µM and 3.19 µM; in test [3], 3.32 µM; in test [4] it was 4.71 µM and 4.59 µM; in test [5] it was 3.27 µM; in test [6], 15.1 µM and 3.46 µM. The TGI in [7] is 4.3 µM and 3.42 µM; in test [8], 0.883 µM; in test [9] it was 3.98 µM; in test [10], 3.2 µM.
As to `COc1ccc(-c2nn(-c3cccc(Cl)c3)cc2-c2c(C#N)c(=O)n3[nH]c(-c4ccc(C)o4)nc3c2C#N)cc1`, the GI50 in [1] was 9.42 µM; in [2] it was 1.54 µM; in [3], 2.53 µM; in [4] it was 2.95 µM; in test [5], 4.96 µM; in test [6], 13.6 µM. The GI50 in [7] was 5.68 µM; in [8], 4.11 µM; in test [9] it was 5.64 µM; in [10], 4.71 µM. Besides, the TGI is more than 50 µM in test [1]; 40.8 µM in test [2]; 22.5 µM in test [3]; more than 50 µM in test [4]; 23.1 µM in test [5]; more than 50 µM in test [6]. In addition, the TGI was more than 50 µM in test [7], more than 50 µM in test [8], 12.4 µM in test [9] and more than 50 µM in test [10].
With `CC(C)(C)OC(=O)CC(S(=O)(=O)c1ccccc1)S(=O)(=O)c1ccccc1`, the GI50 is 13.9 µM in test [1]; 19.6 µM in test [2]; 1.46 µM in [3]; 22 µM in test [4]; 1.65 µM in test [5]; 17.4 µM in [6]. Further, the GI50 in test [7] is 3.49 µM; in [8] it was 1.8 µM; in test [9], 15.5 µM; in [10], 17.2 µM. For the same compound, the TGI was 27.4 µM in [1]; 39.4 µM in test [2]; 2.78 µM in test [3]; 81.4 µM in test [4]; 3.53 µM in [5]; 32.7 µM in test [6]. Further, the TGI in test [7] was 19.7 µM; in [8], 3.31 µM; in test [9], 28.8 µM; in test [10], 35.9 µM.
For `O=[N+]([O-])/C(=C/C=C/c1ccccc1)c1ccccc1`, the GI50 is 1.81 µM in test [1]; 6.03 µM in test [2]; 1.88 µM in test [3]; 2.86 µM in [4]; 1.62 µM in [5]; 2.38 µM in test [6]. For the same compound, the GI50 in [7] was 0.118 µM; in [8], 1.81 µM; in [9] it was 3.16 µM; in [10] it was 1.67 µM. For the same compound, the TGI in test [1] stood at 3.4 µM; in [2], 16.3 µM; in test [3], 3.62 µM; in test [4], 8.41 µM; in [5], 4.08 µM; in [6] it was 6.06 µM. The TGI in [7] was 1.55 µM; in test [8] it was 3.84 µM; in test [9], 12.1 µM; in test [10], 3.17 µM.
As for `CC(C)OC(=O)c1cc(NC(=S)OC(C)C)ccc1Cl`, the TGI is more than 55.9 µM in test [1]; 32.7 µM in [2]; more than 54.6 µM in test [3]; more than 79.8 µM in test [4]; 26.6 µM in [5]; more than 63.1 µM in test [6]. In addition, the TGI was more than 76.8 µM in test [7], 62.7 µM in [8], 33.1 µM in test [9] and more than 57.6 µM in test [10].
`COc1ccc2c(c1)CCC1C2CCC2(C)C(NC(=O)CCCCC3CCSS3)CCC12` (stereo not given): the GI50 in [1] was more than 100 µM; in test [2], more than 100 µM; in [3], 11.2 µM; in test [4], more than 100 µM; in test [5] it was 9.4 µM; in test [6], more than 100 µM. For the same compound, the GI50 in test [7] was 5.85 µM; in test [8], 27 µM; in test [9], 3.26 µM; in test [10], 17.5 µM. Moreover, the TGI in test [1], in [2], in test [3], in test [4], in [5] and in test [6] was more than 100 µM each time. For the same compound, the TGI in test [7] is more than 100 µM; in test [8], more than 100 µM; in [9], 20.3 µM; in test [10] it was more than 100 µM.
For the compound `CN(C)CC(=O)N1CCc2c([nH]c3ccccc23)C1c1cccnc1` (stereo not given), the TGI in [1], in test [2], in [3], in [4], in test [5] and in test [6] was more than 100 µM throughout. Besides, the TGI in test [7], in test [8], in [9] and in test [10] was more than 100 µM in each case. Besides, the GI50 in test [4] was 94.1 µM; in test [8], more than 100 µM.
